From DBAASP
In brackets after ≈: the same amount, converted by molar mass. Several values for one entry are separate records, joined by “and”; a condition that tells them apart may be missing. Equal entries are not always repeated.

Assays:
Assay in all cases: ≥ marks a high value that may be exact or a test limit, other limits are often not marked, values filed in µg/mL are converted to µM
[1] = tested on: Pseudomonas aeruginosa ATCC 27853
[2] = tested on: Salmonella enterica subsp. enterica serovar Typhimurium ATCC 14028
[3] = tested on: Escherichia coli DH5alpha
[4] = tested on: Klebsiella pneumoniae ATCC 13883
[5] = tested on: Staphylococcus aureus NCTC 8325
[6] = tested on: Candida albicans ATCC 90028
[7] = tested on: Escherichia coli ATCC 25922
Staphylococcus aureus = tested on: Staphylococcus aureus
Bacillus subtilis 168 = tested on: Bacillus subtilis 168
Escherichia coli B = tested on: Escherichia coli B
Pseudomonas aeruginosa = tested on: Pseudomonas aeruginosa
Micrococcus luteus = tested on: Micrococcus luteus
[8] = tested on: Pseudomonas aeruginosa ATCC 10145
Escherichia coli = tested on: Escherichia coli
Klebsiella pneumoniae = tested on: Klebsiella pneumoniae
[9] = tested on: Staphylococcus aureus ATCC 25923
[10] = tested on: Acinetobacter baumannii ATCC 19606
Acinetobacter baumannii = tested on: Acinetobacter baumannii
[11] = tested on: Escherichia coli ATCC 11775
[12] = tested on: Candida albicans ATCC 2002
[13] = tested on: Pseudomonas aeruginosa CMCCB 10104
[14] = tested on: Staphylococcus aureus ATCC 29213

With `CC[C@H](C)[C@H](NC(=O)[C@H](Cc1cnc[nH]1)NC(=O)[C@H](C)NC(=O)[C@H](CCSC)NC(=O)[C@H](CC(N)=O)NC(=O)[C@H](CCCCN)NC(=O)[C@H](CCCCN)NC(=O)[C@@H](NC(=O)[C@@H](NC(=O)[C@H](CCCCN)NC(=O)[C@H](C)NC(=O)[C@H](Cc1ccccc1)NC(=O)[C@H](CC(C)C)NC(=O)[C@H](CCCCN)NC(=O)[C@@H]1CCCN1C(=O)[C@H](CC(C)C)NC(=O)[C@@H](N)Cc1ccccc1)[C@@H](C)CC)[C@@H](C)O)C(=O)N[C@@H](CCCN=C(N)N)C(=O)N[C@@H](CS)C(=O)O` [FLPKLFAKITKKNMAHIRC] the MIC [1] was 15 µM (≈ 33.9 µg/mL), the MIC [2] was 15 µM (≈ 33.9 µg/mL) and the MIC [3] was 17 µM and 12 µM. The MIC [4] was 12 µM and 10 µM.
`CC[C@H](C)[C@H](NC(=O)[C@H](CC(C)C)NC(=O)CNC(=O)[C@H](CO)NC(=O)[C@H](CC(C)C)NC(=O)[C@@H](NC(=O)[C@H](CCCCN)NC(=O)CNC(=O)[C@@H](NC(=O)[C@H](CC(C)C)NC(=O)[C@@H]1CCCN1C(=O)[C@H](CC(C)C)NC(=O)[C@@H](N)Cc1ccccc1)C(C)C)[C@@H](C)CC)C(N)=O` [FLPLVGKILSGLI] gave an MIC [5] of at least 70 µM.
`CC[C@H](C)[C@H](NC(=O)[C@H](CC(C)C)NC(=O)[C@H](CCCCN)NC(=O)[C@H](CCCCN)NC(=O)[C@@H](NC(=O)[C@H](C)NC(=O)[C@H](CCCCN)NC(=O)[C@@H](NC(=O)[C@H](C)NC(=O)[C@H](Cc1cnc[nH]1)NC(=O)[C@@H]1CCCN1C(=O)[C@@H](NC(=O)[C@H](CC(C)C)NC(=O)[C@@H]1CCCN1C(=O)CNC(=O)[C@@H](NC(=O)[C@H](Cc1ccc(O)cc1)NC(=O)[C@H](CCCCN)NC(=O)[C@H](CCSC)NC(=O)[C@H](Cc1ccccc1)NC(=O)CN)[C@@H](C)CC)[C@@H](C)CC)C(C)C)[C@@H](C)CC)C(N)=O` [GFMKYIGPLIPHAVKAIKKLI] showed an MIC [5] of 3.13 µM (≈ 7.31 µg/mL), an MIC [6] of 25 µM (≈ 58.4 µg/mL) and an MIC [7] of 6.25 µM (≈ 14.6 µg/mL).
For `CC[C@H](C)[C@H](NC(=O)[C@H](Cc1cnc[nH]1)NC(=O)[C@H](CCCCN)NC(=O)[C@H](Cc1c[nH]c2ccccc12)NC(=O)[C@H](CC(C)C)NC(=O)[C@H](CO)NC(=O)[C@H](CCSC)NC(=O)[C@H](Cc1c[nH]c2ccccc12)NC(=O)[C@H](CCCCN)NC(=O)CN)C(=O)N[C@@H](CC(C)C)C(=O)N[C@@H](CCCCN)C(N)=O` [GKWMSLWKHILK], the MIC (Staphylococcus aureus) was 27 µM (≈ 41.2 µg/mL), the MIC (Bacillus subtilis 168) was 1.4 µM (≈ 2.14 µg/mL) and the MIC (Escherichia coli B) was 8 µM (≈ 12.2 µg/mL). For the same compound, the MIC (Pseudomonas aeruginosa) was 32.5 µM (≈ 49.6 µg/mL).
`CC(C)C[C@H](NC(=O)CNC(=O)[C@H](CC(C)C)NC(=O)CNC(=O)[C@H](CC(N)=O)NC(=O)[C@H](CC(C)C)NC(=O)[C@H](CC(C)C)NC(=O)[C@H](CC(N)=O)NC(=O)CNC(=O)[C@H](CC(C)C)NC(=O)[C@@H](NC(=O)CNC(=O)[C@H](CC(C)C)NC(=O)[C@H](CC(C)C)NC(=O)CN)[C@@H](C)O)C(N)=O` [GLLGTLGNLLNGLGL] showed an MIC (Micrococcus luteus) of at least 35.1 µM.
`CC[C@H](C)[C@H](NC(=O)[C@H](CC(C)C)NC(=O)[C@H](Cc1cnc[nH]1)NC(=O)CNC(=O)[C@H](CC(C)C)NC(=O)[C@@H](NC(=O)[C@H](CCCCN)NC(=O)[C@H](CO)NC(=O)[C@H](Cc1c[nH]c2ccccc12)NC(=O)[C@H](CCSC)NC(=O)CN)[C@@H](C)CC)C(=O)N[C@@H](CCCCN)C(N)=O` [GMWSKILGHLIK] was tested, and the MIC (Staphylococcus aureus) was 15.8 µM (≈ 21.8 µg/mL), the MIC (Bacillus subtilis 168) was 1.3 µM (≈ 1.8 µg/mL) and the MIC (Escherichia coli B) was 7.2 µM (≈ 9.95 µg/mL). For the same compound, the MIC (Pseudomonas aeruginosa) was 65 µM (≈ 89.8 µg/mL).
`C[C@H](NC(=O)[C@H](C)NC(=O)[C@H](CCCCN)NC(=O)[C@H](CCCCN)NC(=O)[C@H](C)NC(=O)[C@H](C)NC(=O)[C@H](CCCCN)NC(=O)[C@H](CCCCN)NC(=O)[C@H](C)NC(=O)[C@H](Cc1ccccc1)NC(=O)[C@H](CCCCN)NC(=O)[C@H](CCCCN)NC(=O)[C@H](C)NC(=O)[C@H](Cc1ccccc1)NC(=O)[C@@H](N)CCCCN)C(=O)N[C@@H](CCCCN)C(=O)O` [KFAKKFAKKAAKKAAK] showed an MIC [8] of at least 142 µM.
In the case of `CC[C@H](C)[C@H](NC(=O)[C@@H](N)CCCCN)C(=O)NCC(=O)N[C@@H](CCCCN)C(=O)N[C@@H](C)C(=O)N[C@@H](CC(C)C)C(=O)NCC(=O)N[C@@H](CCCCN)C(=O)N[C@@H](C)C(=O)N[C@@H](CC(C)C)C(=O)N[C@@H](CCCCN)C(=O)N[C@@H](C)C(=O)N[C@@H](CC(C)C)C(=O)NCC(=O)N[C@@H](CCCCN)C(=O)N[C@@H](C)C(=O)N[C@@H](CC(C)C)C(=O)NCC(=O)N[C@@H](CCCCN)C(=O)N[C@@H](C)C(N)=O` [KIGKALGKALKALGKALGKA], the MIC [1] is reported as 8 µM (≈ 15.5 µg/mL), the MIC (Staphylococcus aureus) is reported as 16 µM (≈ 31 µg/mL) and the MIC (Escherichia coli) is reported as 45.3 µM (≈ 87.6 µg/mL). The MIC (Klebsiella pneumoniae) was 16 µM (≈ 31 µg/mL), the MIC [9] was 16 µM and 22.6 µM and the MIC [10] was 2 µM (≈ 3.87 µg/mL). For the same compound, the MIC [4] was 16 µM (≈ 31 µg/mL), the MIC (Acinetobacter baumannii) was at least 45.3 µM and the MIC (Pseudomonas aeruginosa) was 22.6 µM (≈ 43.8 µg/mL). It also gave an MIC [7] of 8 µM (≈ 15.5 µg/mL).
In the case of `NCCCC[C@H](NC(=O)[C@H](Cc1c[nH]c2ccccc12)NC(=O)[C@H](CCC(N)=O)NC(=O)[C@H](Cc1c[nH]c2ccccc12)NC(=O)[C@H](CCCCN)NC(=O)[C@H](Cc1c[nH]c2ccccc12)NC(=O)[C@H](CCC(N)=O)NC(=O)[C@H](Cc1c[nH]c2ccccc12)NC(=O)[C@@H](N)CCCCN)C(=O)O` [KWQWKWQWK], the MIC [1] is reported as 143 µM (≈ 201 µg/mL), the MIC [11] is reported as at least 36 µM and the MIC [9] is reported as 143 µM (≈ 201 µg/mL). The MIC [7] was 36 µM (≈ 50.5 µg/mL).
Compound `CC[C@H](C)[C@H](NC(=O)[C@H](CCCCN)NC(=O)CNC(=O)[C@H](CC(C)C)NC(=O)[C@@H](NC(=O)[C@H](CCCCN)NC(=O)[C@H](CCCCN)NC(=O)[C@H](Cc1c[nH]c2ccccc12)NC(=O)[C@@H](NC(=O)[C@@H](N)CC(N)=O)C(C)C)C(C)C)C(=O)N[C@H](C(=O)N[C@@H](CCCCN)C(=O)N[C@H](C(=O)N[C@@H](C)C(=O)N[C@@H](CCCCN)C(N)=O)C(C)C)[C@@H](C)CC` [NVWKKVLGKIIKVAK] has an MIC (Staphylococcus aureus) of 71.6 µM (≈ 123 µg/mL), an MIC (Bacillus subtilis 168) of 1.3 µM (≈ 2.24 µg/mL) and an MIC (Escherichia coli B) of 2.5 µM (≈ 4.31 µg/mL). For the same compound, the MIC (Pseudomonas aeruginosa) was 22.7 µM (≈ 39.1 µg/mL).
`CC[C@H](C)[C@H](NC(=O)[C@H](C)NC(=O)[C@H](CC(C)C)NC(=O)[C@H](CCC(=O)O)NC(=O)[C@H](CCCCN)NC(=O)[C@H](Cc1ccccc1)NC(=O)[C@@H](NC(=O)[C@H](CO)NC(=O)[C@H](CC(C)C)NC(=O)[C@H](Cc1ccccc1)NC(=O)[C@@H](N)CO)[C@@H](C)O)C(=O)N[C@@H](CC(N)=O)C(=O)N[C@@H](C)C(=O)N[C@@H](C)C(=O)N[C@@H](CCCCN)C(=O)N[C@@H](CC(N)=O)C(=O)N[C@@H](C)C(=O)NCC(=O)N[C@@H](CCC(N)=O)C(=O)N[C@@H](CO)C(=O)N[C@H](C(=O)N[C@@H](CC(C)C)C(=O)N[C@@H](Cc1cnc[nH]1)C(=O)N[C@H](C(=O)N[C@@H](CC(C)C)C(=O)N[C@@H](CO)C(=O)N[C@H]1CSSC[C@@H](C(=O)O)NC(=O)[C@H]([C@@H](C)O)NC(=O)[C@H](CCCCN)NC(=O)[C@H](CC(=O)O)NC(=O)[C@H](CC(C)C)NC(=O)[C@H](CCCCN)NC1=O)[C@@H](C)O)[C@@H](C)CC` [SFLSTFKELAINAAKNAGQSILHTLSCKLDKTC] gave an MIC [9] of 2.87 µM (≈ 10.2 µg/mL), an MIC [12] of 1.44 µM (≈ 5.1 µg/mL) and an MIC [13] of 5.74 µM (≈ 20.4 µg/mL). The MIC [7] was 5.74 µM (≈ 20.4 µg/mL).
In the case of `CC[C@H](C)[C@H](NC(=O)[C@H](CC(C)C)NC(=O)[C@H](CC(C)C)NC(=O)[C@H](CC(=O)O)NC(=O)[C@H](CCCCN)NC(=O)[C@@H](NC(=O)[C@@H](NC(=O)CNC(=O)[C@H](CC(C)C)NC(=O)[C@@H](NC(=O)[C@@H](N)CO)C(C)C)[C@@H](C)O)C(C)C)C(=O)NCC(=O)N[C@@H](C)C(=O)NCC(=O)N[C@@H](CCCCN)C(=O)N[C@@H](CO)C(=O)N[C@@H](C)C(=O)N[C@@H](C)C(=O)N[C@@H](CCC(N)=O)C(=O)N[C@@H](CO)C(=O)N[C@H](C(=O)N[C@@H](CC(C)C)C(=O)N[C@H](C(=O)N[C@@H](C)C(=O)N[C@@H](CC(C)C)C(=O)N[C@@H](CO)C(=O)N[C@H]1CSSC[C@@H](C(=O)O)NC(=O)[C@H](CO)NC(=O)[C@H](CC(N)=O)NC(=O)[C@H](CO)NC(=O)[C@H](CC(C)C)NC(=O)[C@H](CCCCN)NC1=O)[C@@H](C)O)C(C)C` [SVLGTVKDLLIGAGKSAAQSVLTALSCKLSNSC], the MIC [9] is reported as 3.4 µM (≈ 11 µg/mL), the MIC [12] is reported as 3.4 µM (≈ 11 µg/mL) and the MIC [13] is reported as 6.8 µM (≈ 22 µg/mL). It also gave an MIC [7] of 1.7 µM (≈ 5.5 µg/mL).
`CC[C@H](C)[C@H](NC(=O)[C@H](C)NC(=O)[C@@H](N)C(C)C)C(=O)N[C@@H](C)C(=O)N[C@@H](CC(C)C)C(=O)N[C@@H](CCCCN)C(=O)N[C@@H](C)C(=O)N[C@@H](C)C(=O)N[C@@H](Cc1cnc[nH]1)C(=O)N[C@@H](Cc1ccc(O)cc1)C(=O)N[C@@H](C)C(=O)N[C@H](C(=O)N[C@@H](Cc1cnc[nH]1)C(=O)N[C@@H](CCCCN)C(=O)N[C@@H](CCC(=O)O)C(=O)O)[C@@H](C)O` [VAIALKAAHYATHKE] showed an MIC [4] of at least 78.9 µM and an MIC [14] of 39.4 µM (≈ 64 µg/mL).
